Like-named read-outs stand apart in the source and are kept apart here.
Columns and labels:
[1] = target: T1, GPR139 (Homo sapiens, UniProt Q6DWJ6); assay: GPR139 Agonist titration / agonist counterscreen assay (calcium detection, HEK-GPR139 cells); format: cell-based; parameters: expressed in transfected cells; host or cells: HEK Aequorin cells, Maxcyte transient transfection; settings: GPR139 Agonist Activity; for Averaged Max % Response (±St. Dev.): activity relative to known control; for EC50: read-out: EC50
T1 sequence (Q6DWJ6 1-353): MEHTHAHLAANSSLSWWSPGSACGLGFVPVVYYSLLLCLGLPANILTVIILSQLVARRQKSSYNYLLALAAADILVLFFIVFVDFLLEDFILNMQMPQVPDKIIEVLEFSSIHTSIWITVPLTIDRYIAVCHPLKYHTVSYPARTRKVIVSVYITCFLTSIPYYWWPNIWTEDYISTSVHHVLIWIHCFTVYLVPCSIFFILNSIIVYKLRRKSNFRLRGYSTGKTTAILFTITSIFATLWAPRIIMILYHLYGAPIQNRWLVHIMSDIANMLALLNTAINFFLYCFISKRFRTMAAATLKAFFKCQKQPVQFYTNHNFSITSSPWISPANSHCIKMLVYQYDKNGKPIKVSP
Description: GPR activity was assessed using a calcium detection assay. […] Negative control samples were treated with DMSO. […] Intracellular calcium was measured using Calcium 5.

[2] = tested on: parental HEK cells; assay: HEK parental Agonist Counterscreen Assay (non-transfected cells); format: cell-based; settings: for Averaged Max % Response (±St. Dev.): activity relative to known control
From the text: The high control for the agonist counterscreen was Forskolin not acetylcholine.

[3] = values printed in E-notation without unit
[4] = HEK Agonist Activity section of Table 4 (parental HEK counterscreen)
[5] = Homo sapiens, HEK293, HEK Agonist Activity section of Table 4 (parental HEK counterscreen)
[6] = Homo sapiens, HEK293, HEK Agonist Activity, parental non-transfected HEK cells

| Averaged Max % Response (±St. Dev.) [1] [%] | Lipophilic Efficiency (logD) ([1]; based on logD) | Lipophilic Efficiency (logP) ([1]; based on logP) | Hill Slope ([1]; fitted dose-response curve) | Efficiency Ligand ([1]; ligand efficiency) | EC50 [1, 3] [nM] | Lipophilic Efficiency (logD) ([2]; HEK Agonist Activity section) | Lipophilic Efficiency (logP) ([2]; HEK Agonist Activity section) | Efficiency Ligand [1] | Hill Slope [1] | Lipophilic Efficiency (logD) [1] | Lipophilic Efficiency (logP) [1] | EC50 ([1]; HEK-GPR139 cells) [nM] | Lipophilic Efficiency (logD) ([2]; HEK Agonist Activity) | Lipophilic Efficiency (logP) ([2]; HEK Agonist Activity) | Compound | EC50 [2, 4] [nM] | Averaged Max % Response (±St. Dev.) ([2]; HEK Agonist Activity section) [%] | EC50 [2, 5] [nM] | Averaged Max % Response (±St. Dev.) ([2]; HEK Agonist Activity) [%] | EC50 [2, 6] [nM] |
| --- | --- | --- | --- | --- | --- | --- | --- | --- | --- | --- | --- | --- | --- | --- | --- | --- | --- | --- | --- | --- |
| 84.68 ± 8.82 | 4.29 | 4.29 | 0.73 | 0.35 | 166 | 2.37 | 2.37 |  |  |  |  |  |  |  | CCn1c(=O)c([N+](=O)[O-])c(NCCc2ccc(OC)cc2)c2ccccc21 [SR-01000918303] | > 14100 | −6.52 ± 9.86 |  |  |  |
| 99.13 ± 2.27 | 2.51 | 2.51 | 1.05 | 0.34 | 191 | 0.64 | 0.64 |  |  |  |  |  |  |  | COc1ccc(CCNC(=O)c2cncc(-c3csc4ccccc34)c2)cc1 [SR-01000654639] | > 14000 | 1.22 ± 5.69 |  |  |  |
| 90.02 ± 28.06 |  |  |  |  |  | 1.45 | 1.45 | 0.36 | 1.37 | 2.59 | 2.59 | 1000 |  |  | CC(Oc1ccccc1)C(=O)NCCn1ccc2ccccc21 (stereo not shown) [SR-01000124163] |  | −3.45 ± 3.02 | > 14100 |  |  |
| 80.59 ± 9.85 | 4.66 | 4.66 | 0.95 | 0.32 |  | 2.62 | 2.62 |  |  |  |  |  |  |  | C=C1C(CC(=C)C2Cc3ccc4ccccc4c3C2)=CC(c2ccccc2)=CC1C (stereo not shown) [SR-00000002785] |  | −10.50 ± 3.98 | > 14100 |  |  |
| 86.62 ± 3.28 |  |  |  |  |  | 2.12 | 1.88 | 0.31 | 0.51 | 3.41 | 3.17 | 727 |  |  | Cc1onc(-c2ccccc2Cl)c1C(=O)N1CCC(Cn2ccnc2C)CC1 [SR-01000925002] | > 14100 | 17.46 ± 3.54 |  |  |  |
| 84.49 ± 4.10 | 4.34 | 4.34 | 1.10 | 0.39 | 127 | 2.29 | 2.29 |  |  |  |  |  |  |  | O=C(Cn1cnc2ccccc21)NCCCn1ccc2ccccc21 [SR-01000926263] |  | 12.91 ± 4.81 | > 14100 |  |  |
| 109.12 ± 32.80 |  |  |  |  |  | 1.48 | 1.48 | 0.36 | 0.84 | 3.11 | 3.11 | 437 |  |  | CCN(Cc1ccccc1)C(=O)Cn1cnc2sc(O)c(C)c2c1=O [SR-01000468553] |  | 35.00 ± 2.11 | > 18500 |  |  |
| 100.32 ± 4.53 | 4.12 | 4.12 | 0.79 | 0.45 |  | 2.20 | 2.20 |  |  |  |  |  |  |  | Cc1ccc(CNC(=O)COC(=O)c2ccc(Br)o2)cc1 [SR-01000042100] |  | 17.67 ± 3.11 | > 14400 |  |  |
| 90.33 ± 2.09 |  |  |  |  |  | 2.64 | 2.64 | 0.38 | 1.15 | 4.09 | 4.09 | 527 |  |  | O=C(CNC(=O)c1ccc(Br)o1)NC1CCCc2ccccc21 (stereo not shown) [SR-01000064101] |  | 10.45 ± 2.67 | > 14900 |  |  |
| 93.18 ± 13.55 |  |  |  |  |  | 1.40 | 1.38 | 0.33 | 1.11 | 2.85 | 2.82 | 508 |  |  | COc1ccc(C)cc1NC(=O)NNC(=O)C(C)Oc1ccc(F)cc1Cl (stereo not shown) [SR-01000277633] |  | −5.71 ± 6.76 | > 14100 |  |  |
| 94.25 ± 9.34 | 5.17 | 5.17 | 0.65 | 0.37 |  | 3.17 | 3.17 |  |  |  |  |  |  |  | C=C1CC(C)(c2ccc(OC)cc2)C(=C)C1CC(=O)CC1CCCCC1 (stereo not shown) [SR-01000918719] |  | 19.77 ± 4.52 | > 14100 |  |  |
| 123.40 ± 6.48 | 5.00 | 4.99 | 0.55 | 0.42 | 9.7 |  |  |  |  |  |  |  | 1.82 | 1.81 | O=C(COc1ccccc1F)NNC(=O)CSc1ccc2ccccc2c1 [SR-01000068761] |  |  |  | 4.98 ± 10.48 | > 14700 |
| 67.60 ± 3.63 |  |  |  |  |  | 0.79 | 0.79 | 0.35 | 0.64 | 1.87 | 1.86 | 1200 |  |  | CCN1CCCc2cc(CCNC(=O)Nc3ccccc3)ccc21 [SR-01000923250] |  | −2.96 ± 8.90 | > 14100 |  |  |
| 68.48 ± 7.96 |  |  |  |  |  | 1.72 | 1.67 | 0.27 | 1.13 | 2.21 | 2.16 | 3800 |  |  | CCn1c2ccccc2c2cc(C3C(C#N)=C(N)Oc4n[nH]c(C)c43)ccc21 (stereo not shown) [SR-01000465824] | > 11800 | −11.98 ± 3.62 |  |  |  |
| 107.13 ± 9.94 | 2.98 | 2.98 | 0.51 | 0.26 | 56.5 | 0.56 | 0.56 |  |  |  |  |  |  |  | CSc1cccc(NC(=O)C2C3C=CC4(O3)C2C(=O)N(C(C)c2ccccc2)C4C(=O)NC2CCCCC2)c1 (stereo not shown) [SR-01000546462] | > 15100 | 0.58 ± 3.78 |  |  |  |
| 87.03 ± 9.26 |  |  |  |  |  | 2.52 | 2.52 | 0.31 | 0.84 | 3.64 | 3.64 | 1100 |  |  | CN(Cc1ccc[nH]1)C(=O)CN1C(=O)NC2(CCc3ccccc3C2)C1=O (stereo not shown) [SR-01000068179] |  | 2.62 ± 3.03 | > 14700 |  |  |
| 95.96 ± 3.33 | 5.32 | 5.32 | 0.92 | 0.34 | 103 | 3.15 | 3.15 |  |  |  |  |  |  |  | CC1(c2ccc3c(c2)OCCO3)NC(=O)C(CC(=O)NCC2CCCCC2)C1=O (stereo not shown) [SR-01000074761] |  | 13.40 ± 6.99 | > 15400 |  |  |
| 127.51 ± 13.72 | 5.00 | 5.00 | 0.58 | 0.41 | 26.7 |  |  |  |  |  |  |  | 2.28 | 2.28 | CC(NC(=O)Cn1ncc2c(Cl)cccc21)c1ccc2c(c1)OCCO2 (stereo not shown) [SR-01000155068] |  |  |  | −2.13 ± 1.88 | > 14100 |
| 126.50 ± 10.38 | 4.97 | 4.94 | 0.32 | 0.47 | 4.9 |  |  |  |  |  |  |  | 1.52 | 1.48 | COc1cccc(C(=O)NNC(=O)C(C)Oc2ccc(Cl)cc2Cl)c1 (stereo not shown) [SR-01000356497] |  |  |  | 2.54 ± 3.30 | > 14100 |

Reference: patent US20250099420A1, “SMALL MOLECULE MODULATORS OF GPR139 COMPLEX” (University of Florida Research Foundation, Incorporated, priority 2022, published 2025)
